The values that follow come from patent US20110104179A1 (priority 2009, published 2011).

Values joined by “and” are separate entries in the source; they are usually repeats but may differ in a detail not shown here. Identical values can stand only once. Like-named read-outs stand apart in the source and are kept apart here. Ends that are not written are not given here.

Experiment [1] has as its target Lysine-gingipains (P. gingivalis ATCC 33277 whole cell proteases) (Porphyromonas gingivalis, UniProt B2RLK2). Format: cell-based, Porphyromonas gingivalis ATCC 33277. As to conditions: for Activity with ATCC33277, Lys-gingipains: peptide alone 100 μM, activity ± standard deviation.
For experiment [2], the system named is Arginine-gingipains (P. gingivalis W50 whole cell proteases). Format: cell-based, Porphyromonas gingivalis W50.
Experiment [3] relates to Arginine-gingipains (P. gingivalis ATCC 33277 whole cell proteases). Format: cell-based, Porphyromonas gingivalis ATCC 33277.
In a further experiment the target is RgpB (Porphyromonas gingivalis, UniProt P95493). The conditions noted are these: comparison value, cited from earlier work.
Where [4] appears, read: 200 μM peptide concentration (FIG. 2, Table 2).

Take LPQEVLNENLLRF [αS1-casein(11-23)]: the “Protease activity (%) of the Lysine-gingipains, ATCC 33277 Whole Cell Proteases” value is 64% in experiment [1] (100 μM peptide), 43% in experiment [1] (200 μM peptide) and 34% in experiment [1] (300 μM peptide). The “inhibition of whole cell Lys-specific proteolytic activity” value in experiment [1] (setting [4]) and in experiment [1] (concentration not given) was about 60% in each case. In addition, the “Activity with ATCC33277, Lys-gingipains” value in experiment [1] was determined as 2.73 ± 0.60. Further, in experiment [2], the “Protease activity (%) of the Arginine-gingipains, W50 Whole Cell Proteases” value was 22%. Also, the “Activity with ATCC33277, Arg-gingipains” value in experiment [3] is recorded as 18.00 ± 3.53. Further, in experiment [3], the “Protease activity (%) of the Arginine-gingipains, ATCC 33277 Whole Cell Proteases” value is 38% and 39% and 62%. For the same compound, the “inhibition of whole cell Arg-specific proteolytic activity” value in experiment [3] was ~70% and 40% and ~60%.

Consider YQEPVLGPVRGPF [β-casein(193-205)], for which the “inhibition of whole cell Lys-specific proteolytic activity” value in experiment [1] (concentration not given) is “not as potent”.

Regarding `C[C@H]1c2cccc(O)c2C(=O)C2=C(O)[C@]3(O)C(=O)C(C(N)=O)=C(O)[C@@H](N(C)C)[C@@H]3[C@@H](O)[C@@H]21` [doxycycline], on RgpB (read-out: IC50 against RgpB), the half-inhibitory concentration (IC50) is 3 µM.

As for YQEPVLGPVRGPFPIIV [β-casein(193-209)], the “Protease activity (%) of the Lysine-gingipains, ATCC 33277 Whole Cell Proteases” value in experiment [1] (100 μM peptide) amounted to 71%; in experiment [1] (200 μM peptide) it was 59%; in experiment [1] (300 μM peptide) it was 49%. For the same compound, the “inhibition of whole cell Lys-specific proteolytic activity” value in experiment [1] (setting [4]) is 50%; in experiment [1] (concentration not given) it was 40-50%. Besides, the “Activity with ATCC33277, Lys-gingipains” value in experiment [1] worked out at 3.03 ± 1.20. For the same compound, the “Protease activity (%) of the Arginine-gingipains, W50 Whole Cell Proteases” value in experiment [2] amounted to 46%. Moreover, the “Activity with ATCC33277, Arg-gingipains” value in experiment [3] was determined as 20.03 ± 2.51. In addition, the “Protease activity (%) of the Arginine-gingipains, ATCC 33277 Whole Cell Proteases” value in experiment [3] is 50% and 69%. For the same compound, the “inhibition of whole cell Arg-specific proteolytic activity” value in experiment [3] is 50% and 30% and 40-50%.

In the case of `[H]/N=C(\N/C(=N/[H])NCCCCCCNC(=N)NC(=N)Nc1ccc(Cl)cc1)Nc1ccc(Cl)cc1` [chlorhexidine], the inhibition constant Ki at RgpB (read-out: RgpB Ki) was 262 µM.
